{"source": "paper PMC11012124", "about": "“Synthesis of Novel Triazine-Based Chalcones and 8,9-dihydro-7H-pyrimido[4,5-b][1,4]diazepines as Potential Leads in the Search of Anticancer, Antibacterial and Antifungal Agents” (International Journal of Molecular Sciences, 2024)", "key": {"SNB-75": {"test_system": "SNB-75", "test": "cells", "settings": "Homo sapiens, SNB-75, 48 h"}, "60 cancer cell lines": {"test_system": "60 cancer cell lines", "test": "NCI-60 one-dose screen (10 μM)", "assay_type": "cell-based", "settings": "Homo sapiens; one dose of 10 μM, mean over 60 cancer cell lines; read-out: Mean Growth Percent (MGP)", "from_the_text": "Additionally, the mean of the growth percentages (MGP) of each compound against all the 60 cancer cell lines is also reported, which is used as one of the selection criteria to continue with tests at five concentration doses."}, "U251": {"test_system": "U251", "test": "cells", "settings": "Homo sapiens, U-251, 48 h"}, "786-0": {"test_system": "786-0", "test": "cells", "settings": "Homo sapiens, 786-0, 48 h"}, "RPMI-8226": {"test_system": "RPMI-8226", "test": "cells", "settings": "Homo sapiens, RPMI-8226, 48 h"}, "OVCAR-4": {"test_system": "OVCAR-4", "test": "cells", "settings": "Homo sapiens, OVCAR-4, 48 h"}, "HL-60(TB)": {"test_system": "HL-60(TB)", "test": "cells", "settings": "Homo sapiens, HL-60, 48 h"}, "LOX IMVI": {"test_system": "LOX IMVI", "test": "cells", "settings": "Homo sapiens, 48 h"}, "DU-145": {"test_system": "DU-145", "test": "cells", "settings": "Homo sapiens, DU-145, 48 h"}, "MDA-MB-468": {"test_system": "MDA-MB-468", "test": "cells", "settings": "Homo sapiens, MDA-MB-468, 48 h"}, "SK-OV-3": {"test_system": "SK-OV-3", "test": "cells", "settings": "Homo sapiens, SK-OV-3, 48 h"}, "MCF7": {"test_system": "MCF7", "test": "cells", "settings": "Homo sapiens, MCF7, 48 h"}, "NCI-H23": {"test_system": "NCI-H23", "test": "cells", "settings": "Homo sapiens, NCI-H23, 48 h"}, "HCT-116": {"test_system": "HCT-116", "test": "cells", "settings": "Homo sapiens, HCT-116, 48 h"}, "NCI-H522": {"test_system": "NCI-H522", "test": "cells", "settings": "Homo sapiens, NCI-H522, 48 h"}, "A549/ATCC": {"test_system": "A549/ATCC", "test": "cells", "settings": "Homo sapiens, A549, 48 h"}, "SF-295": {"test_system": "SF-295", "test": "cells", "settings": "Homo sapiens, SF-295, 48 h"}, "OVCAR-5": {"test_system": "OVCAR-5", "test": "cells", "settings": "Homo sapiens, OVCAR-5, 48 h"}, "SF-539": {"test_system": "SF-539", "test": "cells", "settings": "Homo sapiens, SF-539, 48 h"}, "HT29": {"test_system": "HT29", "test": "cells", "settings": "Homo sapiens, HT-29, 48 h"}, "KM12": {"test_system": "KM12", "test": "cells", "settings": "Homo sapiens, KM12, 48 h"}, "T-47D": {"test_system": "T-47D", "test": "cells", "settings": "Homo sapiens, T47D, 48 h"}, "UACC-257": {"test_system": "UACC-257", "test": "cells", "settings": "Homo sapiens, UACC-257, 48 h"}, "M14": {"test_system": "M14", "test": "cells", "settings": "Homo sapiens, M14, 48 h"}, "A498": {"test_system": "A498", "test": "cells", "settings": "Homo sapiens, A498, 48 h"}, "SK-MEL-2": {"test_system": "SK-MEL-2", "test": "cells", "settings": "Homo sapiens, SK-MEL-2, 48 h"}, "NCI-H460": {"test_system": "NCI-H460", "test": "cells", "settings": "Homo sapiens, NCI-H460, 48 h"}, "HOP-92": {"test_system": "HOP-92", "test": "cells", "settings": "Homo sapiens, HOP-92, 48 h"}, "MOLT-4": {"test_system": "MOLT-4", "test": "cells", "settings": "Homo sapiens, MOLT-4, 48 h"}, "TK-10": {"test_system": "TK-10", "test": "cells", "settings": "Homo sapiens, TK-10, 48 h"}, "HCT-15": {"test_system": "HCT-15", "test": "cells", "settings": "Homo sapiens, HCT-15, 48 h"}, "SN12C": {"test_system": "SN12C", "test": "cells", "settings": "Homo sapiens, 48 h"}, "MDA-MB-231/ATCC": {"test_system": "MDA-MB-231/ATCC", "test": "cells", "settings": "Homo sapiens, MDA-MB-231, 48 h"}, "NCI-H226": {"test_system": "NCI-H226", "test": "cells", "settings": "Homo sapiens, NCI-H226, 48 h"}, "COLO 205": {"test_system": "COLO 205", "test": "cells", "settings": "Homo sapiens, COLO 205, 48 h"}, "SK-MEL-5": {"test_system": "SK-MEL-5", "test": "cells", "settings": "Homo sapiens, SK-MEL-5, 48 h"}, "UO-31": {"test_system": "UO-31", "test": "cells", "settings": "Homo sapiens, UO-31, 48 h"}}, "data": [{"compound": "CN(C)c1nc(NCCNS(=O)(=O)c2ccc(C(=O)/C=C/c3ccccc3)cc2)nc(N2CCOCC2)n1", "note": "[23a]", "values": [{"measurement": "GI50", "setting": "SNB-75", "value": 5.49, "unit": "µM"}, {"measurement": "CC50", "setting": "SNB-75; read-out: LC50", "value": 44.6, "unit": "µM"}, {"measurement": "activity at 10 µM", "setting": "60 cancer cell lines", "value": 61.9, "unit": "%"}, {"measurement": "GI50", "setting": "U251; U251, 48 h", "value": 11.7, "unit": "µM"}, {"measurement": "CC50", "setting": "U251; read-out: LC50", "value": 57.2, "unit": "µM"}, {"measurement": "GI50", "setting": "786-0", "value": 14.8, "unit": "µM"}, {"measurement": "CC50", "setting": "786-0; read-out: LC50", "value": 57.1, "unit": "µM"}, {"measurement": "GI50", "setting": "RPMI-8226", "value": 3.25, "unit": "µM"}, {"measurement": "CC50", "setting": "RPMI-8226; read-out: LC50", "value": "> 100", "unit": "µM"}, {"measurement": "GI50", "setting": "OVCAR-4", "value": 14.3, "unit": "µM"}, {"measurement": "CC50", "setting": "OVCAR-4; read-out: LC50", "value": 54, "unit": "µM"}, {"measurement": "GI50", "setting": "HL-60(TB)", "value": 6.18, "unit": "µM"}, {"measurement": "CC50", "setting": "HL-60(TB); read-out: LC50", "value": "> 100", "unit": "µM"}, {"measurement": "GI50", "setting": "LOX IMVI", "value": 1.97, "unit": "µM"}, {"measurement": "CC50", "setting": "LOX IMVI; read-out: LC50, LOX IMVI, 48 h", "value": 8.68, "unit": "µM"}, {"measurement": "GI50", "setting": "DU-145", "value": 15.1, "unit": "µM"}, {"measurement": "CC50", "setting": "DU-145; read-out: LC50", "value": 53.3, "unit": "µM"}, {"measurement": "GI50", "setting": "MDA-MB-468", "value": 4.17, "unit": "µM"}, {"measurement": "CC50", "setting": "MDA-MB-468; read-out: LC50", "value": 49.9, "unit": "µM"}, {"measurement": "GI50", "setting": "SK-OV-3", "value": 15.6, "unit": "µM"}, {"measurement": "CC50", "setting": "SK-OV-3; read-out: LC50", "value": 56.8, "unit": "µM"}, {"measurement": "GI50", "setting": "MCF7", "value": 3.49, "unit": "µM"}, {"measurement": "CC50", "setting": "MCF7; read-out: LC50", "value": 62, "unit": "µM"}, {"measurement": "GI50", "setting": "NCI-H23", "value": 16, "unit": "µM"}, {"measurement": "CC50", "setting": "NCI-H23; read-out: LC50", "value": 58, "unit": "µM"}, {"measurement": "GI50", "setting": "HCT-116", "value": 1.82, "unit": "µM"}, {"measurement": "CC50", "setting": "HCT-116; read-out: LC50", "value": 7.1, "unit": "µM"}, {"measurement": "GI50", "setting": "NCI-H522", "value": 13.6, "unit": "µM"}, {"measurement": "CC50", "setting": "NCI-H522; read-out: LC50", "value": 54.1, "unit": "µM"}, {"measurement": "GI50", "setting": "A549/ATCC", "value": 13.6, "unit": "µM"}, {"measurement": "CC50", "setting": "A549/ATCC; read-out: LC50", "value": 59.1, "unit": "µM"}, {"measurement": "GI50", "setting": "SF-295", "value": 15.6, "unit": "µM"}, {"measurement": "CC50", "setting": "SF-295; read-out: LC50", "value": 59.5, "unit": "µM"}, {"measurement": "GI50", "setting": "OVCAR-5", "value": 12.1, "unit": "µM"}, {"measurement": "CC50", "setting": "OVCAR-5; read-out: LC50", "value": 55.9, "unit": "µM"}, {"measurement": "GI50", "setting": "SF-539", "value": 11.1, "unit": "µM"}, {"measurement": "CC50", "setting": "SF-539; read-out: LC50, SF-539, 48 h", "value": 53.2, "unit": "µM"}, {"measurement": "GI50", "setting": "HT29", "value": 3.8, "unit": "µM"}, {"measurement": "CC50", "setting": "HT29; read-out: LC50", "value": 43.9, "unit": "µM"}, {"measurement": "GI50", "setting": "KM12", "value": 2, "unit": "µM"}, {"measurement": "CC50", "setting": "KM12; read-out: LC50", "value": 8.93, "unit": "µM"}, {"measurement": "GI50", "setting": "T-47D", "value": 16, "unit": "µM"}, {"measurement": "CC50", "setting": "T-47D; read-out: LC50", "value": 87.4, "unit": "µM"}, {"measurement": "GI50", "setting": "UACC-257", "value": 17.9, "unit": "µM"}, {"measurement": "CC50", "setting": "UACC-257; read-out: LC50", "value": 58.3, "unit": "µM"}, {"measurement": "GI50", "setting": "M14", "value": 14.6, "unit": "µM"}, {"measurement": "CC50", "setting": "M14; read-out: LC50", "value": 68.5, "unit": "µM"}, {"measurement": "GI50", "setting": "A498", "value": 14.6, "unit": "µM"}, {"measurement": "CC50", "setting": "A498; read-out: LC50", "value": 52.9, "unit": "µM"}, {"measurement": "GI50", "setting": "SK-MEL-2", "value": 15.3, "unit": "µM"}, {"measurement": "CC50", "setting": "SK-MEL-2; read-out: LC50", "value": 56.9, "unit": "µM"}, {"measurement": "GI50", "setting": "NCI-H460", "value": 18.2, "unit": "µM"}, {"measurement": "CC50", "setting": "NCI-H460; read-out: LC50", "value": 80.7, "unit": "µM"}, {"measurement": "GI50", "setting": "HOP-92", "value": 12.2, "unit": "µM"}, {"measurement": "CC50", "setting": "HOP-92; read-out: LC50", "value": 58, "unit": "µM"}, {"measurement": "GI50", "setting": "MOLT-4", "value": 4.27, "unit": "µM"}, {"measurement": "CC50", "setting": "MOLT-4; read-out: LC50", "value": "> 100", "unit": "µM"}, {"measurement": "GI50", "setting": "TK-10", "value": 16.4, "unit": "µM"}, {"measurement": "CC50", "setting": "TK-10; read-out: LC50", "value": 55.5, "unit": "µM"}, {"measurement": "GI50", "setting": "HCT-15", "value": 5.21, "unit": "µM"}, {"measurement": "CC50", "setting": "HCT-15; read-out: LC50", "value": 61.7, "unit": "µM"}, {"measurement": "GI50", "setting": "SN12C", "value": 14.6, "unit": "µM"}, {"measurement": "CC50", "setting": "SN12C; read-out: LC50", "value": 56.1, "unit": "µM"}, {"measurement": "GI50", "setting": "MDA-MB-231/ATCC", "value": 13.9, "unit": "µM"}, {"measurement": "CC50", "setting": "MDA-MB-231/ATCC; read-out: LC50", "value": 54.7, "unit": "µM"}, {"measurement": "GI50", "setting": "NCI-H226", "value": 13.5, "unit": "µM"}, {"measurement": "CC50", "setting": "NCI-H226; read-out: LC50", "value": 74.2, "unit": "µM"}, {"measurement": "GI50", "setting": "COLO 205", "value": 20.2, "unit": "µM"}, {"measurement": "CC50", "setting": "COLO 205; read-out: LC50", "value": 80.7, "unit": "µM"}, {"measurement": "GI50", "setting": "SK-MEL-5", "value": 15.9, "unit": "µM"}, {"measurement": "CC50", "setting": "SK-MEL-5; read-out: LC50", "value": 54.3, "unit": "µM"}, {"measurement": "GI50", "setting": "UO-31", "value": 11.2, "unit": "µM"}, {"measurement": "CC50", "setting": "UO-31; read-out: LC50", "value": 55.7, "unit": "µM"}]}]}
